Source: patent US11566007B2, “Ras inhibitors” (Revolution Medicines, Inc., priority 2019, dated 2023)
pEC50, pIC50: −log10 of the molar value.

Columns and labels:
[1] = tested on: NCI-H358 cells (K-Ras G12C); test: Potency assay: pERK in NCI-H358 cells; type: cell-based, human; conditions: Homo sapiens, NCI-H358; H358 KRAS G12C; read-out: pERK EC50
Outline: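 pERK decrease read by AlphaLISA SureFire p-ERK1/2 or In-Cell Western after 4 h compound exposure at 37 °C, 5% CO2.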

[2] = tested on: NCI-H358 (K-Ras G12C); test: CellTiter-Glo cell viability assay, NCI-H358; type: cell-based, human; conditions: Homo sapiens, NCI-H358, 120 h, NCI-H358, 5-day treatment; class symbols; read-out: Additional H358 Cell Viability assay data (K-Ras G12C, IC50)
Outline: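 Cells seeded, compound added directly, 5-day exposure. Plates to RT ~30 min, CellTiter-Glo luminescence read. Normalized to DMSO avg (x100); 4-parameter logistic fit.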

[3] = target: K-Ras G12C (Homo sapiens (Human), UniProt P01116+P62937, G12C); test: Ras-Raf (BRAF RBD) disruption / FRET / MOA assay, KRAS G12C; type: biochemical; conditions: KRAS G12C; Ras-Raf disruption/FRET/MOA assay; read-out: IC50* KRAS G12C FRET data
Sequence of K-Ras G12C (P01116-2 other isoform, or with tags, fused parts or gaps G12C): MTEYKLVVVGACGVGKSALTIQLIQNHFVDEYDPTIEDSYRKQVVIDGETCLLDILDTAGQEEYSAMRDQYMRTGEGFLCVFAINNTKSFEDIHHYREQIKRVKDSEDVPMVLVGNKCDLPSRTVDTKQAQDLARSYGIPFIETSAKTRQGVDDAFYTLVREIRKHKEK
Sequence of K-Ras G12C (P62937 whole entry): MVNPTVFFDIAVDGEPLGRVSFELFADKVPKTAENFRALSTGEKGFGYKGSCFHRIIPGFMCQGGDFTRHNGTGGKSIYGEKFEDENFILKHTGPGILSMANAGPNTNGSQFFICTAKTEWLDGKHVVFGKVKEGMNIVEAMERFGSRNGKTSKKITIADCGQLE
Outline: (§1)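 A 10-point, 3-fold dilution series topping at 30 μM final was incubated 3 h at 25° C with the Ras/cyclophilin A/BRAF RBD mixture.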

[4] = target: K-Ras G13C (Homo sapiens (Human), UniProt P01116+P62937, G13C); test: Ras-Raf (BRAF RBD) disruption / FRET / MOA assay, KRAS G13C; type: biochemical; conditions: KRAS G13C; Ras-Raf disruption/FRET/MOA assay; read-out: IC50* KRAS G13C FRET data
Sequence of K-Ras G13C (P01116-2 other isoform, or with tags, fused parts or gaps G13C): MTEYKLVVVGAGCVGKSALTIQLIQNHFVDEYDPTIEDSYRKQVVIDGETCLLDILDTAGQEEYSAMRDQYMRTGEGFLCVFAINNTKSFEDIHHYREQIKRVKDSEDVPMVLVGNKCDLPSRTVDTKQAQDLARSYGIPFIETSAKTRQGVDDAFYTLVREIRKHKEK
Sequence of K-Ras G13C (P62937 whole entry): as the sequence (P62937 whole entry) above
Outline: as §1

[5] = target: KRAS G12S (Homo sapiens (Human), UniProt P01116+P62937, G12S); test: Ras-Raf (BRAF RBD) disruption / FRET / MOA assay, KRAS G12S; type: biochemical; conditions: Ras-Raf disruption/FRET/MOA assay; class symbols; read-out: KRAS G12S FRET data IC50
Sequence of KRAS G12S (P01116-2 other isoform, or with tags, fused parts or gaps G12S): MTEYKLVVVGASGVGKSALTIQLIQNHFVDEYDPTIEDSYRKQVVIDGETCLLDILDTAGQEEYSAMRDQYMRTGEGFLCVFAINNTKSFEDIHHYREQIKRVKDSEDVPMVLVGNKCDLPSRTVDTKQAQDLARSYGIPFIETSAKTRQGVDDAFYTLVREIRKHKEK
Sequence of KRAS G12S (P62937 whole entry): as the sequence (P62937 whole entry) above
Outline: as §1

[6] = target: KRAS G12D (Homo sapiens (Human), UniProt P01116+P62937, G12D); test: Ras-Raf (BRAF RBD) disruption / FRET / MOA assay, KRAS G12D; type: biochemical; conditions: Ras-Raf disruption/FRET/MOA assay; class symbols; read-out: KRAS G12D FRET data IC50
Sequence of KRAS G12D (P01116-2 other isoform, or with tags, fused parts or gaps G12D): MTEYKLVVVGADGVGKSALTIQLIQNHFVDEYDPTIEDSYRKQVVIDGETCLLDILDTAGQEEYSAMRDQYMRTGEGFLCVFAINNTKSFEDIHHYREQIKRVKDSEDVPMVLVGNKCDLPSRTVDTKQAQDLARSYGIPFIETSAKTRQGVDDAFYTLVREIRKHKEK
Sequence of KRAS G12D (P62937 whole entry): as the sequence (P62937 whole entry) above
Outline: as §1

[7] = target: KRAS G12V (Homo sapiens (Human), UniProt P01116+P62937, G12V); test: Ras-Raf (BRAF RBD) disruption / FRET / MOA assay, KRAS G12V; type: biochemical; conditions: read-out: IC50* KRAS G12V FRET data
Sequence of KRAS G12V (P01116-2 other isoform, or with tags, fused parts or gaps G12V): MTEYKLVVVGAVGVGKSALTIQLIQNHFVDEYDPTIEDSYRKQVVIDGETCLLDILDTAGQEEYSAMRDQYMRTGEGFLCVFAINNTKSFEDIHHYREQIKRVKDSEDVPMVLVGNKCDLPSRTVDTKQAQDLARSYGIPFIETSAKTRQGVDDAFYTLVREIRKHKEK
Sequence of KRAS G12V (P62937 whole entry): as the sequence (P62937 whole entry) above
Outline: as §1

[8] = target: KRAS WT (Homo sapiens (Human), UniProt P01116+P62937); test: Ras-Raf (BRAF RBD) disruption / FRET / MOA assay, KRAS WT; type: biochemical; conditions: read-out: IC50* KRAS WT FRET data
Sequence of KRAS WT (P01116-2 other isoform, or with tags, fused parts or gaps): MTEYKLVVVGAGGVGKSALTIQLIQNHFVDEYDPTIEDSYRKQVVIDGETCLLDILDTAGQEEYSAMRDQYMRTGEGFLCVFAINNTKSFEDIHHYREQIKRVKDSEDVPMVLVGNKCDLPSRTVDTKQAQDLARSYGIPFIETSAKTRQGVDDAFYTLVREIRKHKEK
Sequence of KRAS WT (P62937 whole entry): as the sequence (P62937 whole entry) above
Outline: as §1

[9] = target: KRAS G13D (Homo sapiens (Human), UniProt P01116+P62937, G13D); test: Ras-Raf (BRAF RBD) disruption / FRET / MOA assay, KRAS G13D; type: biochemical; conditions: read-out: IC50* KRAS G13D FRET data
Sequence of KRAS G13D (P01116-2 other isoform, or with tags, fused parts or gaps G13D): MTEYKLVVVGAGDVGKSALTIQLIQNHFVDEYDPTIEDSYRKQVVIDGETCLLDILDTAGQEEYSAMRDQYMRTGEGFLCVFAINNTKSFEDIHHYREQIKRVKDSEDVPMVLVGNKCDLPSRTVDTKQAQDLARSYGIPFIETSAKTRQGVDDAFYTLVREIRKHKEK
Sequence of KRAS G13D (P62937 whole entry): as the sequence (P62937 whole entry) above
Outline: as §1

[10] = target: NRAS G12C (Homo sapiens (Human), UniProt P01111+P62937, G12C); test: Ras-Raf (BRAF RBD) disruption / FRET / MOA assay, NRAS G12C; type: biochemical; conditions: read-out: IC50* NRAS G12C FRET data
Sequence of NRAS G12C (P01111 whole entry G12C): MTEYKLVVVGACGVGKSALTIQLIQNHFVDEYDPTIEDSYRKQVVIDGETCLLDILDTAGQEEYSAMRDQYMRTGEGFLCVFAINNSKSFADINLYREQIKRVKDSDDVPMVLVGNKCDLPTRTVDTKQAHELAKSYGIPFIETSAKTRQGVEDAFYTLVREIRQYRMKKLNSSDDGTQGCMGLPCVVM
Sequence of NRAS G12C (P62937 whole entry): as the sequence (P62937 whole entry) above
Outline: as §1

SMILES | pEC50 [1] | pIC50 [2] | pIC50 [3] | pIC50 [4] | pIC50 [5] | pIC50 [6] | pIC50 [7] | pIC50 [8] | pIC50 [9] | pIC50 [10]
C=CC(=O)N1CC[C@H](C(=O)N(C)[C@H](C(=O)N[C@H]2Cc3cc(O)cc(c3)-c3ccc4c(c3)c(c(-c3ccc(CN(C)C)nc3COC)n4CC)CC(C)(C)COC(=O)[C@@H]3CCCN(N3)C2=O)C(C)C)C1 [Example A103] | > 5.30 | 6.00 to 7.00 | 7.00 to 8.00 | 5.00 to 6.00 | 6.00 to 7.00 | 5.00 to 6.00 | 6.00 to 7.00 | 5.00 to 6.00 | 5.00 to 6.00 | 7.00 to 8.00
C=CC(=O)N1CC[C@H](C(=O)N(C)[C@@H](C(=O)N[C@H]2Cc3cc(O)cc(c3)-c3ccc4c(c3)c(c(-c3cccc(CN(C)C)c3)n4CC)CC(C)(C)COC(=O)[C@@H]3CCCN(N3)C2=O)C(C)C)C1 [Example A106] | > 5.30 | 6.00 to 7.00 | 5.00 to 6.00 | < 5.00 | < 5.00 | < 5.00 | < 5.00 | < 5.00 | < 5.00 | 5.00 to 6.00
CCn1c(-c2cncnc2)c2c3cc(ncc31)-c1cc(O)cc(c1)C[C@H](NC(=O)[C@H](C(C)C)N(C)C(=O)[C@H]1CCN(C(=O)C#CCN(C)C)C1)C(=O)N1CCC[C@H](N1)C(=O)OCC(C)(C)C2 [Example A108] | > 5.30 | > 8.00 | > 8.00 | 7.00 to 8.00 | 5.00 to 6.00 | 5.00 to 6.00 | 5.00 to 6.00 | 5.00 to 6.00 | 5.00 to 6.00 | > 8.00
C=CC(=O)N1CC[C@H](C(=O)N(C)[C@H](C(=O)N[C@H]2Cc3cc(O)cc(c3)-c3ccc4c(c3)c(c(-c3cc(CN(C)C)nn3C)n4CC)CC(C)(C)COC(=O)[C@@H]3CCCN(N3)C2=O)C(C)C)C1 [Example A109] | > 5.30 | 6.00 to 7.00 | 6.00 to 7.00 | < 5.00 | 5.00 to 6.00 | < 5.00 | 5.00 to 6.00 | < 5.00 | < 5.00 | 6.00 to 7.00
C=CC(=O)N(C)[C@H](C(=O)N[C@H]1Cc2cc(O)cc(c2)-c2ccc3c(c2)c(c(-c2cccnc2COC)n3CC)CC(C)(C)COC(=O)[C@@H]2CCCN(N2)C1=O)C(C)C [Example A110] | > 5.30 | 6.00 to 7.00 | 6.00 to 7.00 | 6.00 to 7.00 | 5.00 to 6.00 | 5.00 to 6.00 | 5.00 to 6.00 | 6.00 to 7.00 | 5.00 to 6.00 | 5.00 to 6.00
C=CC(=O)N1CC[C@H](C(=O)N(C)[C@H](C(=O)N[C@H]2Cc3cc(O)cc(c3)-c3ccc4c(c3)c(c(-c3ccc(CN(C)C)c(COC)c3)n4CC)CC(C)(C)COC(=O)[C@@H]3CCCN(N3)C2=O)C(C)C)C1 [Example A111] | > 5.30 | 7.00 to 8.00 | 6.00 to 7.00 | 5.00 to 6.00 | 5.00 to 6.00 | < 5.00 | 5.00 to 6.00 | 5.00 to 6.00 | 5.00 to 6.00 | 6.00 to 7.00
C=CC(=O)N1CC[C@H](C(=O)N(C)[C@H](C(=O)N[C@H]2Cc3cc(O)cc(c3)-c3ccc4c(c3)c(c(-c3cnccc3[C@H](C)OC)n4CC)CC(C)(C)COC(=O)[C@@H]3CCCN(N3)C2=O)C(C)C)C1 [Example A112] | > 5.30 | 7.00 to 8.00 | 6.00 to 7.00 | 5.00 to 6.00 | 5.00 to 6.00 | < 5.00 | 5.00 to 6.00 | 5.00 to 6.00 | 5.00 to 6.00 | 6.00 to 7.00
CCn1c(-c2ccccc2CN(C)C)c2c3cc(ccc31)-c1cc(O)cc(c1)C[C@H](NC(=O)[C@H](C(C)C)N(C)C(=O)c1ncc(NC(=O)/C=C/CN(C)C)n1C)C(=O)N1CCC[C@H](N1)C(=O)OCC(C)(C)C2 [Example A116] | > 5.30 | 6.00 to 7.00 | > 8.00 | 7.00 to 8.00 | < 5.00 | 5.00 to 6.00 | < 5.00 | 5.00 to 6.00 | 5.00 to 6.00 | > 8.00
C=CC(=O)N(C)CCC(=O)N(C)[C@H](C(=O)N[C@H]1Cc2cc(O)cc(c2)-c2ccc3c(c2)c(c(-c2cccnc2COC)n3CC)CC(C)(C)COC(=O)[C@@H]2CCCN(N2)C1=O)C(C)C [Example A117] | > 5.30 | 6.00 to 7.00 | 6.00 to 7.00 | 6.00 to 7.00 | 5.00 to 6.00 | < 5.00 | 5.00 to 6.00 | 5.00 to 6.00 | 5.00 to 6.00 | 6.00 to 7.00
C=CC(=O)N1CC[C@H](C(=O)N(C)[C@H](C(=O)N[C@H]2Cc3csc(n3)-c3ccc4c(c3)c(c(-c3cccnc3COC)n4CC)CC(C)(C)COC(=O)[C@@H]3CCCN(N3)C2=O)C(C)C)C1 [Example A118, (2S)-N-[(7S,13S)-21-ethyl-20-[2-(methoxymethyl)pyridin-3-yl]-17,17-dimethyl-8,14-dioxo-15-oxa-3-thia-9,21,27,28-tetraazapentacyclo[17.5.2.1^2,^5.1^9,^13.0^22,^26]octacosa-1(25),2(28),4,19,22(26),23-hexaen-7-yl]-3-methyl-2-{N-methyl-1-[(3S)-1-(prop-2-enoyl)pyrrolidin-3-yl]formamido}butanamide] | > 5.30 | 6.00 to 7.00 | 6.00 to 7.00 | < 5.00 | < 5.00 | < 5.00 | < 5.00 | < 5.00 | < 5.00 | 6.00 to 7.00
CCn1c(-c2cnccc2[C@H](C)OC)c2c3cc(ccc31)-c1cc(O)cc(c1)C[C@H](NC(=O)[C@H](C(C)C)N(C)C(=O)[C@H]1CCN(C(=O)C#CCN(C)C)C1)C(=O)N1CCC[C@H](N1)C(=O)OCC(C)(C)C2 [Example A123] | > 5.30 | > 8.00 | 7.00 to 8.00 | 7.00 to 8.00 | 6.00 to 7.00 | 6.00 to 7.00 | 6.00 to 7.00 | 6.00 to 7.00 | 6.00 to 7.00 | > 8.00
C=CC(=O)N1CCN(C(=O)N(C)[C@H](C(=O)N[C@H]2Cc3cc(O)cc(c3)-c3ccc4c(c3)c(c(-c3ccccc3CCOC)n4CC)CC(C)(C)COC(=O)[C@@H]3CCCN(N3)C2=O)C(C)C)C[C@@H]1COC [Example A125] | > 5.30 | < 6.00 | 6.00 to 7.00 | 6.00 to 7.00 | 5.00 to 6.00 | < 5.00 | 5.00 to 6.00 | 5.00 to 6.00 | 5.00 to 6.00 | 5.00 to 6.00
